Experimental data from patent US20180318379A1, “INHIBITION OF TRIGGERING RECEPTOR EXPRESSED ON MYELOID CELLS 1 (TREM1) TO TREAT CENTRAL NERVOUS SYSTEM DISORDERS” (The Board of Trustees of the Leland Stanford Junior …, priority 2017, published 2018).

How the values were obtained:
TREM1 [1] = test: Neuroscore after MCAo-RP stroke in mice; assay type: in vivo; conditions: 2 days after MCAo-RP; LP17 vs scrambled peptide; n=15-18 per group; ANOVA effect of LP17 p=0.008
TREM1 [2] = test: FACS quantification of brain myeloid cells after MCAo-RP stroke; assay type: in vivo, mice
Protocol: FIG. 12. A representation of the dynamics of immune present at the indicated days after stroke (or the temporal dynamics of immune cell subsets). Stroke was modeled in […] 3 mo male mice using 45 minutes of middle cerebral artery occlusion (MCAo) followed by reperfusion (RP).
These plots show increased CD11b^+/CD45^lo microglia and reduced CD11b^+/CD45^hi macrophages with LP17 treatment.

[3] = 2 days after MCAo-RP, LP17 vs scrambled peptide

LQVTDSGLYRCVIYHPP [LP17]
neuroscores (TREM1 [1]): improved
CD11b+/CD45hi macrophages in stroked hemisphere (FACS) (TREM1 [2]; [3]): reduced
CD11b+/CD45lo microglia in stroked hemisphere (FACS) (TREM1 [2]; [3]): increased
infiltration of macrophages after stroke (TREM1 [2]; after MCAo-RP stroke): reduces infiltration of macrophages
